According to patent publication US4377687A, “Analogs of 1-(2-chloroethyl)-1-nitroso-3-(cycloheyl)-urea substituted by heterocyclic rings or alkyl radicals” (Stiftung Deutsches Krebsforschungszentrum, priority 1978, dated 1983):
“And” between values parts separate entries of the source, which are not always exact repeats. Equal entries are not always repeated. Where two headings read alike, the source gives them in different places.

Tests used:
[1] = Mean animal weight / weight gain after tumor transplantation; type: in vivo, rat (Sprague-Dawley rats); conditions: CP 70 (exp. 1-3), BCNU 25, MeCCNU 45 (exp. 1), picolyl-3-CNU 25, its HCl 25 (exp. 2), morpholino-CNU 28, piperidino-CNU 15 (exp. 3), dimethylmorpholino-CNU 45 mg/kg (exp. 4); for Mean animal weight on day 50: day 50 after tumor transplantation; for Mean animal weight on day 100: day 100 after tumor transplantation
Procedure: (§1) Male Sprague-Dawley rats were used in the experiments. Yoshida sarcome in ascites form was maintained in the same strain of rats by serial intraperitoneal injection of 0,5 ml of ascites fluid.
(§2) 3×10^6 cells were injected into the colon wall in a manner known per se. The chemotherapeutic treatment was carried out on the eighth day after implantation of the tumor cells.
(§3) Water-insoluble compounds were dissolved in Cremophor EL/ethanol/physiological saline (20:20:60: vol.%). Water-soluble substances were dissolved in physiological saline. Cremophor EL is a surfactant on the basis of polyethoxylated castor oil. All test compounds were administered introperitoneally. The nitrosoureas were applied at approximately equitoxic doses corresponding to about 80% of the acute LD50 values observed in healthy rats of the same strain over a 28-day observation period.
In all treated animals and at all doses tested the mean weight gain was lower than in the controls. Table 3 gives the mean animal weights measured 50 and 100 days after tumor transplantation in experiments 1 to 5.

Yoshida sarcoma [2] = conditions: previous experiments; i.p.; cited from earlier work
Yoshida sarcoma [3] = type: in vivo, rat (male Sprague-Dawley rats)
Procedure: The chemotherapeutic activity of nitrosoureas was compared in antitumor tests using Yoshida sarcoma ascited cells implanted into the wall of the descending colon in Sprague-Dawley rats.
as §1, §2, §3
Each experiment involved an untreated control group and a varying number of treated groups. Individual survival times were counted as days after tumor inoculation. At the time of death a record of whether an animal was tumor-free or not was made. All animals alive 120 days after tumor inoculation were killed. Animals that according to macroscopic examination had no tumor at the end of the experiment were considered as cured. Since in a number of control rats also no tumors occurred after 120 days the differences in cures between controls and treated animals rather than absolute numbers are reported. Differences in survival were evaluated statistically by individual comparisons between treated rats and controls using a nonparametric log-rank test (Kalbfleisch and Prentice, The statistical analysis of failure time data, Wiley, New York, 1979). Numerical evaluation was performed using a computerized system.

[4] = Experiment 1, CP 70, BCNU 25, MeCCNU 45 mg/kg
[5] = Experiment 1, CP 70, BCNU 25, MeCCNU 45 mg/kg, initial animals CP 30, BCNU 30, MeCCNU 29
[6] = Experiment 1, i.p. day 8, CP 70, BCNU 25, MeCCNU 45 mg/kg
[7] = Experiment 2, CP 70, picolyl-3-CNU 25, picolyl-3-CNU.HCl 25 mg/kg
[8] = Experiment 2, CP 70, picolyl-3-CNU 25, picolyl-3-CNU.HCl 25 mg/kg, 30 initial animals each
[9] = Experiment 3, CP 70, morpholino-CNU 28, piperidino-CNU 15 mg/kg
[10] = Experiment 3, CP 70, morpholino-CNU 28, piperidino-CNU 15 mg/kg, 30 initial animals each
[11] = Experiment 5, CP 70, picolyl-3-CNU.HCl 25, morpholino-CNU 28, piperidino-CNU 15 mg/kg
[12] = Experiment 5, CP 70, picolyl-3-CNU.HCl 25, morpholino-CNU 28, piperidino-CNU 15 mg/kg, 15 initial animals (picolyl-3-CNU.HCl 14)
[13] = Experiment 5, CP 70, piperidino-CNU 15 mg/kg

Question: Which results are given for `O=NN(CCCl)C(=O)NCCCl` [BCNU, 1,3-bis-(2-chloroethyl)-1-nitrosourea]?
Answer: Mean animal weight on day 50 [1]: 270 g; Mean animal weight on day 100 [1]: 300 g; activity against Yoshida sarcoma, shown previously (in words) (Yoshida sarcoma [2]): active; tumor-free animals at the end of the experiment (in words) (Yoshida sarcoma [3]; 120 days): increased the rate of tumor-free animals alive at the end of the experiment; increase in tumor-free animals (cures) above controls (Yoshida sarcoma [3]; 120 days, CP (exp. 1-3), BCNU, MeCCNU 45, dimethylmorpholine-CNU 45, piperidino-CNU 15, picolyl-3-CNU.HCl 25 mg/kg): 18%; D1-120 = difference (%) between tf1-120 of treated and untreated animals (Yoshida sarcoma [3]; [4]): 22%; D120 = difference (%) between tf120 of treated and untreated animals (Yoshida sarcoma [3]; [4]): 18%; tf1-120 (%) (tf120 + animals dying of toxicity) (Yoshida sarcoma [3]; [4]): 47%; tf120 (%) (animals surviving day 120 without tumor) (Yoshida sarcoma [3]; [4]): 43%; tf1-120, No. (tf120 + animals dying of toxicity) (Yoshida sarcoma [3]; [5]): 14; tf120, No. (animals surviving day 120 without tumor) (Yoshida sarcoma [3]; [5]): 13; % M (median survival time, untreated control = 100) (Yoshida sarcoma [3]; [6]): 160%; M = median survival time (Yoshida sarcoma [3]; [6]): 74 days

Question: For `O=P1(N(CCCl)CCCl)NCCCO1` (stereo not drawn) [CP, 2-bis-(β-chloroethyl)-amino-oxo-2-oxa-2-λ^5-phospha-3-aza-cyclohexane], which “Mean animal weight on day 50” value [1] is on record?
Answer: 300 to 330 g

Question: What about the “Mean animal weight on day 100” value [1] of the same compound?
Answer: 300 to 370 g

Question: And the “activity against Yoshida sarcoma, shown previously (in words)” value (Yoshida sarcoma [2])?
Answer: responds favorably

Question: And the “D1-120 = difference (%) between tf1-120 of treated and untreated animals” value (Yoshida sarcoma [3]; [4])?
Answer: 38%

Question: And the “D120 = difference (%) between tf120 of treated and untreated animals” value (from here on “D120 = difference (%) between tf120”) (Yoshida sarcoma [3]; [4])?
Answer: 25%

Question: And the “tf1-120 (%) (tf120 + animals dying of toxicity)” value (“tf1-120 (%)” below) (Yoshida sarcoma [3]; [4])?
Answer: 63%

Question: What about the “tf120 (%) (animals surviving day 120 without tumor)” value (Yoshida sarcoma [3]; [4]) of the same compound?
Answer: 50%

Question: And the “tf1-120, No. (tf120 + animals dying of toxicity)” value (Yoshida sarcoma [3]; [5])?
Answer: 21

Question: What about the “tf120, No. (animals surviving day 120 without tumor)” value (Yoshida sarcoma [3]; [5]) of the same compound?
Answer: 15

Question: And the “% M (median survival time, untreated control = 100)” value (Yoshida sarcoma [3]; [6])?
Answer: > 260%

Question: And the “M = median survival time” value (Yoshida sarcoma [3]; [6])?
Answer: > 120 days

Question: And the “% M (median survival time, untreated control = 100)” value (Yoshida sarcoma [3]; [7])?
Answer: > 545%

Question: What about the “D1-120 = difference (%) between tf1-120 of treated and untreated animals” value (Yoshida sarcoma [3]; [7]) of the same compound?
Answer: 58%

Question: And the “D120 = difference (%) between tf120” value (Yoshida sarcoma [3]; [7])?
Answer: 35%

Question: And the “tf1-120 (%)” value (Yoshida sarcoma [3]; [7])?
Answer: 80%

Question: And the “tf120 (%) (animals surviving day 120 without tumor)” value (Yoshida sarcoma [3]; [7])?
Answer: 57%

Question: And the “tf1-120, No. (tf120 + animals dying of toxicity)” value (Yoshida sarcoma [3]; [8])?
Answer: 24

Question: And the “tf120, No. (animals surviving day 120 without tumor)” value (Yoshida sarcoma [3]; [8])?
Answer: 17

Question: And the “M = median survival time” value (Yoshida sarcoma [3]; Experiment 2, i.p. day 8, CP 70, picolyl-3-CNU 25, picolyl-3-CNU.HCl 25 mg/kg)?
Answer: > 120 days

Question: What about the “% M (median survival time, untreated control = 100)” value (Yoshida sarcoma [3]; [9]) of the same compound?
Answer: > 686%

Question: And the “D1-120 = difference (%) between tf1-120 of treated and untreated animals” value (Yoshida sarcoma [3]; [9])?
Answer: 48%

Question: What about the “D120 = difference (%) between tf120” value (Yoshida sarcoma [3]; [9]) of the same compound?
Answer: 38%

Question: What about the “tf1-120 (%)” value (Yoshida sarcoma [3]; [9]) of the same compound?
Answer: 77%

Question: And the “tf120 (%) (animals surviving day 120 without tumor)” value (Yoshida sarcoma [3]; [9])?
Answer: 67%

Question: What about the “tf1-120, No. (tf120 + animals dying of toxicity)” value (Yoshida sarcoma [3]; [10]) of the same compound?
Answer: 23

Question: What about the “tf120, No. (animals surviving day 120 without tumor)” value (Yoshida sarcoma [3]; [10]) of the same compound?
Answer: 20

Question: What about the “M = median survival time” value (Yoshida sarcoma [3]; Experiment 3, i.p. day 8, CP 70, morpholino-CNU 28, piperidino-CNU 15 mg/kg) of the same compound?
Answer: > 120 days

Question: And the “% M (median survival time, untreated control = 100)” value (Yoshida sarcoma [3]; [11])?
Answer: 400%

Question: And the “D1-120 = difference (%) between tf1-120 of treated and untreated animals” value (Yoshida sarcoma [3]; [11])?
Answer: 7%

Question: And the “D120 = difference (%) between tf120” value (Yoshida sarcoma [3]; [11])?
Answer: 7%

Question: What about the “tf1-120, No. (tf120 + animals dying of toxicity)” value (Yoshida sarcoma [3]; [12]) of the same compound?
Answer: 1

Question: And the “tf120, No. (animals surviving day 120 without tumor)” value (Yoshida sarcoma [3]; [12])?
Answer: 1

Question: What about the “tf120, No. (animals surviving day 120 without tumor)” value (Yoshida sarcoma [3]; Experiment 5, CP 70, picolyl-3-CNU.HCl 25, morpholino-CNU 28, piperidino-CNU 15 mg/kg, 15 initial animals (picolyl-3-CNU.HCl 14), listed as cyclophosphamide) of the same compound?
Answer: 1/15

Question: And the “tf1-120 (%)” value (Yoshida sarcoma [3]; [13])?
Answer: 7%

Question: And the “tf120 (%) (animals surviving day 120 without tumor)” value (Yoshida sarcoma [3]; [13])?
Answer: 7%

Question: And the “M = median survival time” value (Yoshida sarcoma [3]; Experiment 5, i.p. day 8, CP 70, picolyl-3-CNU.HCl 25, morpholino-CNU 28, piperidino-CNU 15 mg/kg)?
Answer: 40 days

Question: What about the “rate of tumor-free animals treated with cyclophosphamide in the other experiments” value (Yoshida sarcoma [3]; after 120 days, experiments other than experiment 5, listed as cyclophosphamide) of the same compound?
Answer: 50% and 57% and 67%

Question: And the “p for improvement of survival time / life expectancy” value (Yoshida sarcoma [3]; compared with controls, CP (exp. 1-3), dimethylmorpholine-CNU 45 mg/kg)?
Answer: < 0,05

Question: And the “effect on survival time / life expectancy (in words)” value (Yoshida sarcoma [3]; experiments 1-4, MeCCNU 45, morpholino-CNU 28 (exp. 3 and 5), dimethylmorpholine-CNU 45, piperidino-CNU 15, picolyl-3-CNU 25, picolyl-3-CNU.HCl 25 mg/kg)?
Answer: improved significantly

Question: And the “chemotherapeutic activity against Yoshida sarcoma in the colon wall (in words)” value (Yoshida sarcoma [3]; i.p.)?
Answer: most active compound
